Measured values from patent US20040073007A1, “Antiangiogenic peptides” (priority 2001, published 2004).
Ends that are not written are not given here. * marks the point of attachment. Acm = CC(=O)NC*

Legend:
endothelial cells = experiment: Tubules formation by endothelial cells on Matrigel; assay type: cell-based; details: endothelial cells on Matrigel with FGF or VEGF; area quantified by NIH Image
Method: The formation of tubular structures, similar to capillaries, was evaluated by seeding the endothelial cells on a Matrigel carrier, a re-constructed basal membrane, with the characteristic of being liquid at 4° C. and of undergoing polymerization at 37° C. forming a tri-dimensional gel. Proangiogenic factors, such as Fibroblast Growth Factor (FGF) or Vascular Endothelial Growth Factor (VEGF), were added to the medium in the presence of the peptide 9-49 and the plate's were incubated at 37° C. under 5% CO2 atmosphere. Tubules formation was monitored observing the cells with an inverted microscope and, after recording the image by means of photography, a quantification was performed by evaluating the area occupied by the cells and by the capillaries network. Upon observation under the microscope, it is evident that the peptide of invention is able to inhibit the capacity of endothelial cells to form tubular structures similar to capillaries, which on the contrary are clearly evident in the untreated control cells (FIG. 4A). In FIG. 4B, a quantitative analysis of the effect, carried out by a proper software (NIH Image), is reported.

EA.hy.926 cells [1] = experiment: DNA synthesis (tritiated thymidine incorporation) in EA.hy.926 cells stimulated with 10% FBS; assay type: cell-based, human; details: 24 hours, starting from the concentration of 10^−12 M
Method: Endothelial human cells EA.hy.926 were grown in DMEM supplemented with 10% fetal bovine serum (FBS) and with the appropriate concentrations of glutamine and antibiotics. Before the experiments, the cells had been deprived of serum for 24 hours in 0.1% FBS. EA.hy.926 cells were inoculated in 96 well-plates and, after being deprived of serum for 24 hours, were 'stimulated with 10% FBS in the presence or in the absence of different concentrations of the peptide 6-49 or of endostatin for further 24 hours. Tritiated tymidine (1 μCi/well) was added during the last 6 hours of incubation. The cells were then extracted in 10% TCA and the radioactivity incorporated in the TCA-insoluble fraction was determined after solubilization in 0.5 M NaOH. The results, reported in FIGS. 3a and 3b, are expressed as the percentage of the maximal stimulation induced by 10% serum in the absence of the drug.

EA.hy.926 cells [2] = experiment: EA.hy.926 cell migration, chemotaxis test in Boyden chamber; assay type: cell-based, human; details: glioma conditioned medium as chemotactic stimulus, 4 hours, at/starting from 10^−9 M
Method: Endothelial human cells EA.hy.926 were grown in DMEM supplemented with 10% fetal bovine serum (FBS) and with the appropriate concentrations of glutamine and antibiotics. Before the experiments, the cells had been deprived of serum for 24 hours in 0.1% FBS. EA.hy.926 cells migration has been evaluated by chemotaxis test in a 48 well Boyden chamber using polycarbonate filters of 12 μm porosity pre-treated with a 10 μg/ml type I collagen solution. […] The chemotactic stimulus, represented by a conditioned medium obtained by a culture of glioma cells, was added to the lower chamber. After 4 hours of incubation at 37° C., non migrated cells were removed by a scraper and the filter was colored with Diff Quick. Migrated cells were then counted at a 400×magnification in 6 different fields. The results, reported in FIG. 2, are expressed as a percentage of the maximal migration induced by the conditioned medium in the presence of the peptide or of endostatin.

male mice C57/b16 = experiment: Matrigel pellet s.c. in mice, hemoglobin amount (Drabkin's method); assay type: in vivo; details: Matrigel with FGF 2 ng/ml and heparin 36 U/ml s.c., 4 days; dose of 1 mg/mouse; compared with controls
Method: […] of Matrigel containing FGF 2 ng/ml and heparin 36 U/ml were inoculated s.c. in the abdominal region of male mice C57/b16, of age from 6 to 10 weeks. […] Six animals were used in each experiment. After 4 days, the gelatinized Matrigel pellet was recovered and the amount of hemoglobin therein was measured by means of a commercial kit based on Drabkin's method ([…] Aldrich).

Question: Which results are given for “FQPVLHLVALNSPLSGGMRGIRGADFQC(Acm)FQQARAVGLAGTFRAF [Peptide 6-49, tetratetracontapeptide]”?
Answer: tubules formation compared with controls, considered as 100% (endothelial cells): 23%; maximal inhibition of DNA synthesis (EA.hy.926 cells [1]): about 80%; maximal inhibition of cell migration (EA.hy.926 cells [2]): about 60%; hemoglobin levels in the Matrigel pellets (male mice C57/b16): capable of reducing hemoglobin levels
